Blank lines part the entries; values can stand above or below the compound they belong to.
Tests used:
Experiment in all cases: Competitive isoTOP-ABPP, cell lysates
Format in all cases: binding
[1] = biological target: T1, PDIA6 C55 (Q15084) (Homo sapiens, UniProt Q15084); conditions: for isoTOP-ABPP reactivity ratio, Q15084_C55: 500 μm
T1 sequence (Q15084 20-440): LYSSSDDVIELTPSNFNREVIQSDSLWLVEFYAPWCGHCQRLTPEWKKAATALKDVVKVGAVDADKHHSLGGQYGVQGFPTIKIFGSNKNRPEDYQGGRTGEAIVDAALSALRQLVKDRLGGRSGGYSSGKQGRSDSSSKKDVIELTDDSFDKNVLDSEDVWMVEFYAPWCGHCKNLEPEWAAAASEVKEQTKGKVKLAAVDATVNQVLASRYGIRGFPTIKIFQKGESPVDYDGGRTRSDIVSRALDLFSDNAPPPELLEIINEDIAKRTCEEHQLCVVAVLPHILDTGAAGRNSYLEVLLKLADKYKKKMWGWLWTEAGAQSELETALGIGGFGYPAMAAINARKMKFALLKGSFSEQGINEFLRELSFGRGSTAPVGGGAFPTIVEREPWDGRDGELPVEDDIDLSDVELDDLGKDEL

[2] = biological target: T2, PDIA6 C190 (Q15084) (Homo sapiens, UniProt Q15084); conditions: for isoTOP-ABPP reactivity ratio, Q15084_C190: 500 μm
T2 sequence (Q15084 20-440): T1 sequence (Q15084 20-440)

[3] = biological target: XPO1 C528 (O14980) (Homo sapiens, UniProt O14980)
XPO1 C528 (O14980), sequence (O14980 whole entry): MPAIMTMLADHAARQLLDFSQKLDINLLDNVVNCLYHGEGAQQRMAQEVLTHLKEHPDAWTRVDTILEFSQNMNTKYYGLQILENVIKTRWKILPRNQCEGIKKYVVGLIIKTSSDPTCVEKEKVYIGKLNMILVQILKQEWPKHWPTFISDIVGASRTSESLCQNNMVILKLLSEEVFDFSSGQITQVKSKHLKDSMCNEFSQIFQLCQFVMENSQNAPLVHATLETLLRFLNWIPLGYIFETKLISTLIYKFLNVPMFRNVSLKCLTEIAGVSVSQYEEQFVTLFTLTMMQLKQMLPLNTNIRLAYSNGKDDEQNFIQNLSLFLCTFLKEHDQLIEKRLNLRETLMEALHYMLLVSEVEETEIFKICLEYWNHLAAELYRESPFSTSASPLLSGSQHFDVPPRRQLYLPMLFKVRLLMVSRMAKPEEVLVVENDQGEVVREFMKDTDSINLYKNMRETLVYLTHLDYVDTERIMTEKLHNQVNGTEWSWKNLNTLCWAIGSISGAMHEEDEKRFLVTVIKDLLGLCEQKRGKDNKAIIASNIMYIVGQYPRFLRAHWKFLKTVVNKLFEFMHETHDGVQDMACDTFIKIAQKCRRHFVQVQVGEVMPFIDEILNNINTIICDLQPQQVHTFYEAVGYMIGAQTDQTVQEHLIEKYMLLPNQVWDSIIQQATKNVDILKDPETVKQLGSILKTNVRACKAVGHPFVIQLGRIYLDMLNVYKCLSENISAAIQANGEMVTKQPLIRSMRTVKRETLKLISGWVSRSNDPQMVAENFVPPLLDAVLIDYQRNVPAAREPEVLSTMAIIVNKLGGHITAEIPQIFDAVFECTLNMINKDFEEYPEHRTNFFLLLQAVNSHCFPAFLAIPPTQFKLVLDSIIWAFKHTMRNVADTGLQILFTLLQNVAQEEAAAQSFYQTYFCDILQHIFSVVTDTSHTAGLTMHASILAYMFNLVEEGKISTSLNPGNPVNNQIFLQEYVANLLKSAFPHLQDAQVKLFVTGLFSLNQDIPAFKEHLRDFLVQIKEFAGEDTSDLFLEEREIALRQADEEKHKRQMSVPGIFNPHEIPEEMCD

[4] = biological target: GSTP1 C48 (P09211) (Homo sapiens, UniProt P09211); conditions: for isoTOP-ABPP reactivity ratio, P09211_C48: 500 μm
GSTP1 C48 (P09211), sequence (P09211 whole entry): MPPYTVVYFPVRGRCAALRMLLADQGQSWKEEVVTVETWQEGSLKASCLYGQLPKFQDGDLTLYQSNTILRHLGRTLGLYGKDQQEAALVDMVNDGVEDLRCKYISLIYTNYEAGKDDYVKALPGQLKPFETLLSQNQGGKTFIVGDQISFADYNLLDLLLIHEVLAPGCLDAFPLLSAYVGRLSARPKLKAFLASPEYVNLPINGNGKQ

[5] = biological target: XPO1 C34 (O14980) (Homo sapiens, UniProt O14980); conditions: for isoTOP-ABPP reactivity ratio, O14980_C34: 500 μm
XPO1 C34 (O14980), sequence (O14980 whole entry): as the sequence (O14980 whole entry) above

[6] = biological target: T3, ACAT1 C119 (P24752) (Homo sapiens, UniProt P24752); conditions: for isoTOP-ABPP reactivity ratio, P24752_C119: 500 μm
T3 sequence (P24752 34-427): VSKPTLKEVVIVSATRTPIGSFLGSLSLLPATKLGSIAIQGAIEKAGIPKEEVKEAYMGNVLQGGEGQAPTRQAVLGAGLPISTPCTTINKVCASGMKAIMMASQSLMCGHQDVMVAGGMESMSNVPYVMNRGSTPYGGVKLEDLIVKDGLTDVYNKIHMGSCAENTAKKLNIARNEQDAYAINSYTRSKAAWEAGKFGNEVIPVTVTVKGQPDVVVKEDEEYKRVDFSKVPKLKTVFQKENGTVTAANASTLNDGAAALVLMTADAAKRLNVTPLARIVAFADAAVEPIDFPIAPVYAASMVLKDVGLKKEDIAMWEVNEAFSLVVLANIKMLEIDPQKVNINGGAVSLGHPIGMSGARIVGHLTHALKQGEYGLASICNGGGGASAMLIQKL

[7] = biological target: T4, ACAT1 C126 (P24752) (Homo sapiens, UniProt P24752); conditions: for isoTOP-ABPP reactivity ratio, P24752_C126: 500 μm
T4 sequence (P24752 34-427): T3 sequence (P24752 34-427)

[8] = biological target: SMARCC2 C145 (Q8TAQ2) (Homo sapiens, UniProt Q8TAQ2); conditions: for isoTOP-ABPP reactivity ratio, Q8TAQ2_C145: 500 μm
SMARCC2 C145 (Q8TAQ2), sequence (Q8TAQ2 whole entry): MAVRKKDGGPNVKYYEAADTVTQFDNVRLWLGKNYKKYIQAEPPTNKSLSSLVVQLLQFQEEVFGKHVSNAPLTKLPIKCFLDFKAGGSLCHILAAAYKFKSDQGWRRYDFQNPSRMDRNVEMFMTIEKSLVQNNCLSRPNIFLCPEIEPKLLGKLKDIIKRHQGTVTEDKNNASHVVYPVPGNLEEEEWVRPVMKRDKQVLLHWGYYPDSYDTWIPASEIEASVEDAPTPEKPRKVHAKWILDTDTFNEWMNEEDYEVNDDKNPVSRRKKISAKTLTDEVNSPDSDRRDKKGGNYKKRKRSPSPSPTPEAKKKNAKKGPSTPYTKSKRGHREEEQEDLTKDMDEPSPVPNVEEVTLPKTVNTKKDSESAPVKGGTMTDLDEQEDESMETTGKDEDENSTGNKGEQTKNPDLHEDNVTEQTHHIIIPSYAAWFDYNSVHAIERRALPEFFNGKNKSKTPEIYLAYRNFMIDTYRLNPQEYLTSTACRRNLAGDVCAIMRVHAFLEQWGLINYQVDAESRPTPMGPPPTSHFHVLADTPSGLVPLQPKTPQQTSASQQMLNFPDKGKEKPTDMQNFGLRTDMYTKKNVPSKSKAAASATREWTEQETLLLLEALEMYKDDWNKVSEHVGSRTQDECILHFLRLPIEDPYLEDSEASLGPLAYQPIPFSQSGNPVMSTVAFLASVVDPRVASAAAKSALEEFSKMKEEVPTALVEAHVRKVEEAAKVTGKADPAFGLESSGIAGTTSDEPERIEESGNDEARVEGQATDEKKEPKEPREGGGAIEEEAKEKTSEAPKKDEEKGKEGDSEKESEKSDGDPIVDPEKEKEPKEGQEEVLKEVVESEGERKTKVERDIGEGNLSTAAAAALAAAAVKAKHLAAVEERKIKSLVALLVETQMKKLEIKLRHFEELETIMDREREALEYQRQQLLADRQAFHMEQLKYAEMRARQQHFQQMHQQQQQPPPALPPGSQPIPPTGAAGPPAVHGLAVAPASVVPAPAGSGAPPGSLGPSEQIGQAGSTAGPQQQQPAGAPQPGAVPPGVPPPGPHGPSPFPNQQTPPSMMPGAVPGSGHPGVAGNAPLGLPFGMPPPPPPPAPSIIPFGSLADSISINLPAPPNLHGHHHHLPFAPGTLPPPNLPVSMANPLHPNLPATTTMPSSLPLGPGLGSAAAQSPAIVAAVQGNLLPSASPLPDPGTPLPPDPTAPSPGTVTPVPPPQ

[9] = biological target: T5, UBE2S C118 (Q16763) (Homo sapiens, UniProt Q16763); conditions: 500 μm
T5 sequence (Q16763 1-222): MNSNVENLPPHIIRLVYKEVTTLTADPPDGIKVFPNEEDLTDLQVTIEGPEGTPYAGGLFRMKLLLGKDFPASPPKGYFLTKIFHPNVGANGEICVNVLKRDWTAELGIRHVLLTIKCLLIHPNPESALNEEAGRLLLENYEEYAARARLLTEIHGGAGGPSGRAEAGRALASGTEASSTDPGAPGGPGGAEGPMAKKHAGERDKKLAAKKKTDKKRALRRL

isoTOP-ABPP reactivity ratio, Q15084_C55 ([1]; in-vitro_ramos): 1.0
isoTOP-ABPP reactivity ratio, Q15084_C190 ([2]; in-vitro_ramos): 1.1
isoTOP-ABPP reactivity ratio, O14980_C528 ([3]; 500 μm, in-vitro_ramos): 0.9
isoTOP-ABPP reactivity ratio, P09211_C48 ([4]; in-vitro_ramos): 1.2
isoTOP-ABPP reactivity ratio, O14980_C34 ([5]; in-vitro_ramos): 0.9
isoTOP-ABPP reactivity ratio, P24752_C119 ([6]; in-vitro_ramos): 0.8
isoTOP-ABPP reactivity ratio, P24752_C126 ([7]; in-vitro_ramos): 0.9
SMILES: C=CC(=O)N1CCC(c2noc3ccc(F)cc23)CC1 [compound 37]

isoTOP-ABPP ratio (reactivity profile), Q15084_C55 ([1]; 500 μm in-vitro ramos): 1.3
isoTOP-ABPP ratio (reactivity profile), Q15084_C55 ([1]; 500 μm in-vitro ramos_231): 1.0
isoTOP-ABPP ratio (reactivity profile), Q15084_C190 ([2]; 500 μm in-vitro ramos_231): 1.2
isoTOP-ABPP ratio (reactivity profile), Q8TAQ2_C145 ([8]; 500 μm in-vitro ramos_231): 1.0
isoTOP-ABPP ratio (reactivity profile), O14980_C528 ([3]; 500 μm in-vitro ramos_231): 1.0
isoTOP-ABPP ratio (reactivity profile), P09211_C48 ([4]; 500 μm in-vitro ramos): 0.4
isoTOP-ABPP ratio (reactivity profile), P09211_C48 ([4]; 500 μm in-vitro ramos_231): 1.0
isoTOP-ABPP ratio (reactivity profile), O14980_C34 ([5]; 500 μm in-vitro ramos): 0.9
isoTOP-ABPP ratio (reactivity profile), O14980_C34 ([5]; 500 μm in-vitro ramos_231): 1.3
isoTOP-ABPP ratio (reactivity profile), P24752_C119 ([6]; 500 μm in-vitro ramos): 0.6
isoTOP-ABPP ratio (reactivity profile), P24752_C119 ([6]; 500 μm in-vitro ramos_231): 1.3
isoTOP-ABPP ratio (reactivity profile), P24752_C126 ([7]; 500 μm in-vitro ramos): 0.8
isoTOP-ABPP ratio (reactivity profile), P24752_C126 ([7]; 500 μm in-vitro ramos_231): 1.1
SMILES: O=C(CCl)N1CCN(CC(=O)N2CCOCC2)CC1 [compound 29]

isoTOP-ABPP reactivity ratio, Q16763_C118 ([9]; in-vitro_ramos): 0.8
isoTOP-ABPP reactivity ratio, Q16763_C118 ([9]; in-vitro_ramos_231): 0.9
isoTOP-ABPP reactivity ratio, Q15084_C55 ([1]; in-vitro_ramos_231): 0.8
isoTOP-ABPP reactivity ratio, Q15084_C190 ([2]; in-vitro_ramos): 1.7
isoTOP-ABPP reactivity ratio, Q15084_C190 ([2]; in-vitro_ramos_231): 0.9
isoTOP-ABPP reactivity ratio, Q8TAQ2_C145 ([8]; in-vitro_ramos): 1.1
isoTOP-ABPP reactivity ratio, Q8TAQ2_C145 ([8]; in-vitro_ramos_231): 0.9
isoTOP-ABPP reactivity ratio, P09211_C48 ([4]; in-vitro_ramos): 1.6
isoTOP-ABPP reactivity ratio, P09211_C48 ([4]; in-vitro_ramos_231): 1.6
isoTOP-ABPP reactivity ratio, O14980_C34 ([5]; in-vitro_ramos): 1.1
isoTOP-ABPP reactivity ratio, O14980_C34 ([5]; in-vitro_ramos_231): 0.8
isoTOP-ABPP reactivity ratio, P24752_C119 ([6]; in-vitro_ramos): 0.9
isoTOP-ABPP reactivity ratio, P24752_C119 ([6]; in-vitro_ramos_231): 0.8
isoTOP-ABPP reactivity ratio, P24752_C126 ([7]; in-vitro_ramos_231): 0.9
SMILES: C=CC(=O)Nc1cc(C)c(Br)cc1C [compound 40]
